Results: PubChem BioAssay (NCI)
Several values for one entry are separate records, joined by “and”; a condition that tells them apart may be missing. Equal values may be shown once.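 Each compound was tested at five concentrations against cells in 96-well plates for 48 hours. GI50: concentration for 50% inhibition of growth. TGI is the concentration that stops growth completely.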

How the values were obtained:
Test in all cases: NCI tumour cell line growth inhibition, 48 h
MOLT-4 leukemia = test system: MOLT-4 leukemia
HCT-15 colon = test system: HCT-15 colon
KM12 colon = test system: KM12 colon
BT-549 breast = test system: BT-549 breast
TK-10 renal = test system: TK-10 renal
HL-60(TB) leukemia = test system: HL-60(TB) leukemia
CAKI-1 renal = test system: CAKI-1 renal
A549 NSCLC = test system: A549 NSCLC
OVCAR-3 ovarian = test system: OVCAR-3 ovarian
HOP-92 NSCLC = test system: HOP-92 NSCLC

Row | Structure (SMILES) | GI50 (MOLT-4 leukemia) | GI50 (HCT-15 colon) | GI50 (KM12 colon) | GI50 (BT-549 breast) | GI50 (TK-10 renal) | GI50 (HL-60(TB) leukemia) | GI50 (CAKI-1 renal) | GI50 (A549 NSCLC) | GI50 (OVCAR-3 ovarian) | TGI (HOP-92 NSCLC) | TGI (MOLT-4 leukemia) | TGI (HCT-15 colon) | TGI (KM12 colon) | TGI (BT-549 breast) | TGI (TK-10 renal) | TGI (HL-60(TB) leukemia) | TGI (CAKI-1 renal) | TGI (A549 NSCLC) | TGI (OVCAR-3 ovarian) | GI50 (HOP-92 NSCLC)
1 | NC(N)=NS(=O)(=O)c1ccc(Nc2c3ccccc3nc3c(C(=O)NCCO)cccc23)cc1 | 4.78 µM | 32.2 µM | 15.4 µM | 33.8 µM | 18.7 µM | 16.9 µM | 22.8 µM | 20.1 µM | 17.1 µM | 0.747 µM | – | – | – | – | – | – | – | – | – | –
2 | CO/C(=N\N=C\c1ccc(C(F)(F)F)cc1)c1ccncc1 | – | – | – | – | – | – | – | – | – | > 10 µM | > 10 µM | > 10 µM | > 10 µM | > 10 µM | > 10 µM | > 10 µM | > 10 µM | > 10 µM | > 10 µM | –
3 | COc1cccc(C2c3cc4c(cc3OC(C)(N3CCCC3)C2C)OCO4)c1O (stereo not given) | – | – | – | – | – | – | – | – | – | 71.4 µM | > 54.6 µM | 29 µM | 27.4 µM | 48.2 µM | 77.1 µM | 6.01 µM | 28.7 µM | 75 µM | 5.45 µM | –
4 | C[C@@H](Oc1cc(-n2cnc3ccc(CN4CCN(C)CC4)cc32)sc1C(N)=O)c1ccccc1C(F)(F)F | < 0.0107 µM and 0.0112 µM | 0.045 µM and 0.0432 µM | < 0.012 µM and 0.00556 µM | 0.0746 µM and 0.139 µM | 2.69 µM and 1.46 µM | < 0.01 µM and 0.00595 µM | 0.337 µM and 0.222 µM | 0.0211 µM and 0.0306 µM | < 0.0152 µM and 0.00528 µM | 0.947 µM and > 3.14 µM | 4.71 µM and 2.76 µM | 12.9 µM and > 10 µM | 12.7 µM and > 10 µM | 15.2 µM and > 10 µM | 17.3 µM and > 10 µM | < 0.0179 µM | 15.1 µM and > 10 µM | 10.8 µM and > 10 µM | 16.7 µM and > 10 µM | 0.0342 µM and 0.191 µM
5 | Cc1ccc(CN2CCC(C(=O)Nc3ccc(-c4cc5ccccc5[nH]4)cc3)CC2)o1 | > 100 µM | > 100 µM | 83.9 µM | > 100 µM | > 100 µM | > 100 µM | > 100 µM | > 100 µM | > 100 µM | > 100 µM | > 100 µM | > 100 µM | > 100 µM | > 100 µM | > 100 µM | > 100 µM | > 100 µM | > 100 µM | > 100 µM | 2.71 µM
6 | O=[N+]([O-])c1ccc2c(c1)/C(=N/N=C1c3ccccc3Cc3ccccc31)c1cc([N+](=O)[O-])cc([N+](=O)[O-])c1-2 | – | – | – | – | – | – | – | – | – | 8.61 µM | 5.99 µM | 4.99 µM | 6.34 µM | 2.87 µM | 11.5 µM | > 22.8 µM | 9.36 µM | 25.3 µM | 3.11 µM | –
7 | COc1ccc(CC2c3cc4c(cc3CCN2C)OCO4)c(C=O)c1OC (stereo not given) | – | – | – | – | – | – | – | – | – | > 100 µM | > 100 µM | > 100 µM | > 100 µM | > 100 µM | > 100 µM | > 100 µM | > 100 µM | > 100 µM | > 100 µM | –
8 | Nc1ccccc1C#C/C=C\C#Cc1ccccc1OC(F)(F)F | 2.91 µM | 4 µM | 4.78 µM | 5.78 µM | 10.6 µM | 2.08 µM | 4.42 µM | 5.99 µM | 3.49 µM | 26.4 µM | 24.1 µM | 20 µM | 27.3 µM | 22.5 µM | 43.7 µM | 11.1 µM | 28.2 µM | > 100 µM | 20.5 µM | 9.57 µM
9 | O=C(Nc1ccccc1)c1c(O)[nH]c(=S)[nH]c1=O | 40 µM | 84.3 µM | 69.9 µM | – | – | 80.4 µM | 28 µM | 36.7 µM | 10.9 µM | 45.1 µM | 53.2 µM and 96.4 µM | 72.2 µM and > 250 µM | 111 µM and > 250 µM | 72 µM | 125 µM | 67.3 µM and > 250 µM | 58.1 µM and 127 µM | 82.6 µM and 147 µM | 74.8 µM and 71.3 µM | –
10 | COC([CH2][Hg][n]1cnc2c1c(=O)n(C)c(=O)n2C)CN1C(=O)c2ccccc2S1(=O)=O (stereo not given) | > 100 µM | > 100 µM | > 100 µM | > 100 µM | > 100 µM | 53.4 µM | > 100 µM | > 100 µM | > 100 µM | > 100 µM | > 100 µM | > 100 µM | > 100 µM | > 100 µM | > 100 µM | > 100 µM | > 100 µM | > 100 µM | > 100 µM | > 100 µM
11 | C=C(C)C(OC)C(O)CC1(C)CC(O)CC(C)(C2CCC3OC(C4(C)CCC(Br)C(C)(C)O4)CCC3(C)O2)O1 (stereo not given) | 13.5 µM | 26.2 µM | 17.5 µM | 19.9 µM | 16 µM | 17.1 µM | 18.1 µM | 21 µM | 22.8 µM | 34 µM | 29.4 µM | > 68 µM | 36.7 µM | 38.4 µM | 33.5 µM | > 56.7 µM | 38.3 µM | > 58 µM | 58.5 µM | 15.8 µM
12 | CCOC(=O)Cn1c(C(F)(F)F)nc2nc(Cl)c(Cl)nc21 | – | – | – | – | – | – | – | – | – | 70.3 µM | 97.6 µM | > 100 µM | 34 µM | > 100 µM | > 100 µM | 42.9 µM | 11.5 µM | > 100 µM | 54.2 µM | –
13 | Fc1[nH]nc2ccc([C@@H]3Nc4ccc5[nH]ncc5c4[C@H]4C5CCC(C5)[C@@H]34)cc12 (stereo not given in full) | 0.651 µM | 0.495 µM | 0.559 µM | 1.77 µM | 3.51 µM | 0.348 µM | 0.671 µM | 1.03 µM | 0.39 µM | 14.2 µM | 12.7 µM | 13.1 µM | 11.5 µM | 17.8 µM | 15.5 µM | 1.69 µM | 15 µM | 12.1 µM | 2.97 µM | 2 µM
14 | CC(C)=CCC\C(C)=C/C=C/C(C)=C\C=C\C(C)=C/C=C/C=C(C)\C=C\C=C(C)/C=C/C=C(/C)CCC=C(C)C | – | – | – | – | – | – | – | – | – | > 100 µM | > 100 µM | > 100 µM | > 100 µM | > 100 µM | > 100 µM | > 100 µM | > 100 µM | > 100 µM | > 100 µM | –
15 | CC1CCc2nc[nH]c(=O)c21 (stereo not given) | > 100 µM | > 100 µM | > 100 µM | > 100 µM | > 100 µM | > 100 µM | > 100 µM | > 100 µM | > 100 µM | > 100 µM | > 100 µM | > 100 µM | > 100 µM | > 100 µM | > 100 µM | > 100 µM | > 100 µM | > 100 µM | > 100 µM | > 100 µM
16 | OCc1cc2ccccc2c2c3c(ccc12)OCO3 | 28.5 µM | 32.5 µM | 35 µM | 27.1 µM | 31.2 µM | 23.7 µM | 29.3 µM | 30.3 µM | 36.4 µM | 58.2 µM | 82.3 µM | – | 137 µM | 76.3 µM | 79.1 µM | 66.2 µM | 188 µM | 126 µM | 168 µM | 14.7 µM
17 | OC1CSSC1Cn1cnc2c(Nc3ccc(OCc4cccc(F)c4)c(Cl)c3)ncnc21 (stereo not given) | 0.441 µM | 0.767 µM | 0.386 µM | 4.98 µM | 1.15 µM | 3.47 µM | 2.2 µM | 0.742 µM | 0.748 µM | 23 µM | 1.38 µM | 2.16 µM | 1.43 µM | 12.1 µM | 5.01 µM | 20.8 µM | 6.85 µM | 1.88 µM | 1.93 µM | 8.97 µM
18 | Cc1nc2sccn2c1-c1csc(Nc2ccccc2Cl)n1 | 3.28 µM | 2.64 µM | 2.61 µM | 3.6 µM | 4.44 µM | 3 µM | 3.06 µM | 2.98 µM | 3.18 µM | 7.08 µM | 17 µM | 32.5 µM | 24.5 µM | 23.4 µM | 48.8 µM | 29.2 µM | 40.7 µM | 44.4 µM | 19.1 µM | 0.798 µM
19 | CN(C)c1ccc(/C=C\C2=[N+](C)c3ccccc3C2(C)C)cc1 | – | 4.18 µM | 0.369 µM | 0.423 µM | 1.25 µM | 0.295 µM | 1.82 µM | 1.06 µM | 0.342 µM | > 22.8 µM | > 100 µM | > 69.7 µM | 4.46 µM | 11.2 µM | > 52.4 µM | > 100 µM | 20.6 µM | > 62 µM | 4.38 µM | 0.89 µM
20 | O=C(Nc1ccc(-n2ccc3c(NC(=O)c4ccccc4)nccc32)cc1)c1ccc(Cl)c(C(F)(F)F)c1 | 0.351 µM | 0.0275 µM | 0.351 µM | 6.5 µM | 5.38 µM | 0.687 µM | 0.305 µM | 0.318 µM | 1.35 µM | > 42.2 µM | > 20.7 µM | 2.83 µM | 6.26 µM | > 50 µM | 13.5 µM | 9.78 µM | 11.8 µM | 8.45 µM | 10 µM | 3.42 µM
